# In patent US8518889B2, “Method of treating cancer with antibodies against long-form leukotriene B4 receptor BLT2” (Korea University Research & Business Foundation, priority 2007, dated 2013):
# Tests used:
# LNCaP cells = experiment: MTT assay, cell viability; assay type: cell-based, human; details: increasing concentration, 48 hr, serum free RPMI 1640
# Protocol: (§1) The effect of LY255283, BLT2 antagonist, on cell viability was examined by MTT assay. PWR-1E cells were seeded at a density of 1.0×10^4 cells/well and LNCaP cells were seeded at a density of 1.5×10^4 cells/well in 96-well culture dishes. After 36 hr, the medium was replaced with serum free RPMI 1640 and cells were stimulated with DMSO or LY255283 of increasing concentration. MTT (1 mg/mu) was added at 48 hr after LY255283 treatment and after 4 hr of further incubation the medium was replaced with DMSO. Then cells were incubated at room temperature for 10 min. The spectrophotometric absorbance of the samples was determined by using Ultra Multifunctional Microplate Reader at 540 nm. LNCaP cells and PWR-1E cells were stimulated with LY255283 of various concentration in serum free RPM11640.
# [1] = test system: 253J-BV cell (bladder cancer cell); experiment: morphological changes by light microscopy; assay type: cell-based, human; details: 1-10 μM, 48 hr
# Protocol: Bladder cancer cells grown in 6 well-plate were treated with 10 μM LY255283, 1 uM U75302 for 48 hr. Cells were then viewed using light microscopy (×100). SV-HUC-1 cell (normal bladder cell) and 253J-BV cell (bladder cancer cell) were treated with different concentrations (1-10 μM) of LY255283 (BLT2 specific antagonist), U75302 (BLT1 specific antagonist) for 48 hr. […] But normal bladder cell line was not effect on morphological change treated with BLT antagonists.
# PWR-1E cells = experiment: MTT assay, cell viability; assay type: cell-based; details: increasing concentration, 48 hr, serum free RPMI 1640
# Protocol: as §1
smiles,measurement,setting,value
"CCc1cc(C(C)=O)c(O)cc1OCCCCCC(C)(C)c1nnn[nH]1 [LY255283, 1-[5-ethyl-2-hydroxy-4-[[6-methyl-6-(1H-tetrazol-5-yl)heptyl]oxy]phenyl]-ethanone]",LNCaP cell viability (MTT),LNCaP cells,dose dependent reduction
same,morphological change,[1],"exhibited membrane blebbing, detached from plate"
same,PWR-1E cell viability (MTT),PWR-1E cells,no effect
